Measurements published in PubChem BioAssay (NCI).
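Following 48 hours of exposure in 96-well plates, responses at five concentrations were used to interpolate endpoints linearly. The concentration for 50% growth inhibition is given as GI50. TGI: concentration producing complete growth inhibition.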

What was measured:
Assay in all cases: inhibition of tumour cell growth, NCI panel, 48 h
[1] = tested on: PC-3 prostate
[2] = tested on: CCRF-CEM leukemia
[3] = tested on: BT-549 breast
[4] = tested on: KM12 colon
[5] = tested on: A549 NSCLC
[6] = tested on: HS 578T breast
[7] = tested on: HOP-62 NSCLC
[8] = tested on: SF-539 CNS
[9] = tested on: NCI-H23 lung
[10] = tested on: ACHN renal
[11] = tested on: OVCAR-4 ovarian
[12] = tested on: HCT-15 colon
[13] = tested on: NCI/ADR-RES ovarian
[14] = tested on: MDA-MB-231 breast
[15] = tested on: HCT-116 colon
[16] = tested on: UACC-62 melanoma
[17] = tested on: OVCAR-5 ovarian
[18] = tested on: OVCAR-8 ovarian
[19] = tested on: SW-620 colon
[20] = tested on: SK-MEL-5 melanoma
[21] = tested on: SK-MEL-28 melanoma
[22] = tested on: HL-60(TB) leukemia
[23] = tested on: MOLT-4 leukemia
[24] = tested on: 786-0 renal
[25] = tested on: UO-31 renal
[26] = tested on: K-562 leukemia
[27] = tested on: SN12C renal
[28] = tested on: SF-295 CNS
[29] = tested on: TK-10 renal
[30] = tested on: HCC-2998 colon
[31] = tested on: SNB-19 CNS
[32] = tested on: NCI-H522 lung
[33] = tested on: SNB-75 CNS
[34] = tested on: IGROV1 ovarian
[35] = tested on: DU-145 prostate
[36] = tested on: MCF7 breast
[37] = tested on: NCI-H226 lung
[38] = tested on: SR leukemia
[39] = tested on: M14 melanoma
[40] = tested on: NCI-H460 lung
[41] = tested on: MDA-MB-435
[42] = tested on: UACC-257 melanoma
[43] = tested on: HOP-92 NSCLC
[44] = tested on: U251 CNS
[45] = tested on: T-47D breast
[46] = tested on: RPMI-8226 leukemia
[47] = tested on: SK-OV-3 ovarian
[48] = tested on: OVCAR-3 ovarian
[49] = tested on: SF-268 CNS
[50] = tested on: EKVX NSCLC
[51] = tested on: COLO 205 colon
[52] = tested on: CAKI-1 renal
[53] = tested on: SK-MEL-2 melanoma
[54] = tested on: RXF 393 renal
[55] = tested on: HT29 colon
[56] = tested on: A498 renal
[57] = tested on: MALME-3M melanoma
[58] = tested on: LOX IMVI melanoma

COc1ccc(NC(=O)CC(=O)N2N=C(N3c4ccccc4Sc4ccccc43)CC2c2ccccc2)cc1 (centres undefined)
TGI [1]: > 100000 nM
TGI [2]: > 100000 nM
TGI [3]: > 100000 nM
TGI [4]: > 100000 nM
TGI [5]: > 100000 nM
TGI [6]: 96900 nM
TGI [7]: > 100000 nM
TGI [8]: > 100000 nM
TGI [9]: > 100000 nM
TGI [10]: > 100000 nM
TGI [11]: > 100000 nM
TGI [12]: > 100000 nM
TGI [13]: > 100000 nM
TGI [14]: > 100000 nM
TGI [15]: > 100000 nM
TGI [16]: > 100000 nM
TGI [17]: > 100000 nM
TGI [18]: > 100000 nM
TGI [19]: > 100000 nM
TGI [20]: > 100000 nM
TGI [21]: > 100000 nM
TGI [22]: > 100000 nM
TGI [23]: > 100000 nM
TGI [24]: > 100000 nM
TGI [25]: > 100000 nM
TGI [26]: > 100000 nM
TGI [27]: > 100000 nM
TGI [28]: > 100000 nM
TGI [29]: > 100000 nM
TGI [30]: > 100000 nM
TGI [31]: > 100000 nM
TGI [32]: > 100000 nM
TGI [33]: > 100000 nM
TGI [34]: > 100000 nM
TGI [35]: > 100000 nM
TGI [36]: > 100000 nM
TGI [37]: > 100000 nM
TGI [38]: > 100000 nM
TGI [39]: > 100000 nM
TGI [40]: > 100000 nM
TGI [41]: > 100000 nM
TGI [42]: > 100000 nM
TGI [43]: > 100000 nM
TGI [44]: > 100000 nM
TGI [45]: > 100000 nM
TGI [46]: > 100000 nM
TGI [47]: > 100000 nM
TGI [48]: > 100000 nM
TGI [49]: 82900 nM
TGI [50]: > 100000 nM
TGI [51]: > 100000 nM
TGI [52]: > 100000 nM
TGI [53]: > 100000 nM
TGI [54]: > 100000 nM
TGI [55]: > 100000 nM

CO[C@H]1/C=C(/C)CCC[C@H](C)[C@H](O)[C@@H](C)C(=O)C(C)(C)[C@@H](O)CC(=O)O[C@@H]1/C(C)=C/c1csc(C)n1
GI50 [1]: 36.1 nM
TGI [1]: > 100000 nM
GI50 [2]: 30 nM
TGI [2]: > 100000 nM
GI50 [3]: 49.8 nM
TGI [3]: > 100000 nM
GI50 [4]: < 12.9 nM
TGI [4]: > 100000 nM
GI50 [56]: 23.4 nM
TGI [56]: > 100000 nM
GI50 [5]: 21.9 nM
TGI [5]: > 100000 nM
GI50 [6]: 23.4 nM
TGI [6]: > 100000 nM
GI50 [7]: 41.4 nM
TGI [7]: > 100000 nM
GI50 [57]: 17 nM
TGI [57]: > 100000 nM
GI50 [9]: 34.9 nM
TGI [9]: > 100000 nM
GI50 [10]: 55.5 nM
TGI [10]: > 100000 nM
GI50 [11]: 71 nM
TGI [11]: > 100000 nM
GI50 [12]: < 12.8 nM
TGI [12]: > 100000 nM
GI50 [13]: 25.2 nM
TGI [13]: 128 nM
GI50 [14]: 42.8 nM
TGI [14]: > 100000 nM
GI50 [15]: < 12.9 nM
TGI [15]: > 100000 nM
GI50 [16]: 28.7 nM
TGI [16]: > 100000 nM
GI50 [17]: 43.6 nM
TGI [17]: > 100000 nM
GI50 [18]: 27.7 nM
TGI [18]: > 100000 nM
GI50 [19]: < 14.8 nM
TGI [19]: > 100000 nM
GI50 [20]: 18.6 nM
TGI [20]: > 100000 nM
GI50 [21]: 44.5 nM
TGI [21]: > 100000 nM
GI50 [22]: < 10 nM
TGI [22]: > 100000 nM
GI50 [58]: 16.2 nM
TGI [58]: > 100000 nM
GI50 [23]: 35.9 nM
TGI [23]: > 100000 nM
GI50 [25]: 33.4 nM
TGI [25]: > 100000 nM
GI50 [26]: < 17.3 nM
TGI [26]: > 100000 nM
GI50 [27]: 48.8 nM
TGI [27]: > 100000 nM
GI50 [28]: < 16.8 nM
TGI [28]: 279 nM
GI50 [29]: 36.6 nM
TGI [29]: > 100000 nM
GI50 [30]: 20.3 nM
TGI [30]: 259 nM
GI50 [31]: 48.6 nM
TGI [31]: > 100000 nM
GI50 [32]: < 10 nM
TGI [32]: 22.4 nM
GI50 [33]: < 10 nM
TGI [33]: 31.9 nM
GI50 [34]: 24.1 nM
TGI [34]: > 100000 nM
GI50 [35]: 25.9 nM
TGI [35]: 81.7 nM
GI50 [36]: < 10 nM
TGI [36]: > 100000 nM
GI50 [37]: 32.4 nM
TGI [37]: > 100000 nM
GI50 [38]: 15.1 nM
TGI [38]: > 58200 nM
GI50 [39]: 21.8 nM
TGI [39]: > 100000 nM
GI50 [40]: < 10 nM
TGI [40]: > 100000 nM
GI50 [42]: 45.2 nM
TGI [42]: > 100000 nM
GI50 [43]: 38 nM
TGI [43]: > 100000 nM
GI50 [44]: 14.3 nM
TGI [44]: > 100000 nM
GI50 [45]: 66.8 nM
TGI [45]: > 100000 nM
GI50 [46]: 70.5 nM
TGI [46]: > 100000 nM
GI50 [47]: 27.2 nM
TGI [47]: > 77200 nM
GI50 [48]: < 16.1 nM
TGI [48]: 111 nM
GI50 [49]: 34.6 nM
TGI [49]: > 100000 nM
GI50 [50]: 43.2 nM
TGI [50]: > 100000 nM
GI50 [51]: 15.9 nM
TGI [51]: 75.5 nM
GI50 [52]: 23.8 nM
TGI [52]: > 100000 nM
GI50 [53]: 18.6 nM
GI50 [54]: 18.7 nM
TGI [54]: 72.5 nM
GI50 [55]: < 10 nM
TGI [55]: 525 nM
